{"source": "paper PMC11981762", "about": "(Computational and Structural Biotechnology Journal, 2025)", "key": {"[1]": {"target": "T1, human neuronal glycine receptor α1 (Homo sapiens, UniProt P23415)", "T1 sequence (P23415 29-457)": "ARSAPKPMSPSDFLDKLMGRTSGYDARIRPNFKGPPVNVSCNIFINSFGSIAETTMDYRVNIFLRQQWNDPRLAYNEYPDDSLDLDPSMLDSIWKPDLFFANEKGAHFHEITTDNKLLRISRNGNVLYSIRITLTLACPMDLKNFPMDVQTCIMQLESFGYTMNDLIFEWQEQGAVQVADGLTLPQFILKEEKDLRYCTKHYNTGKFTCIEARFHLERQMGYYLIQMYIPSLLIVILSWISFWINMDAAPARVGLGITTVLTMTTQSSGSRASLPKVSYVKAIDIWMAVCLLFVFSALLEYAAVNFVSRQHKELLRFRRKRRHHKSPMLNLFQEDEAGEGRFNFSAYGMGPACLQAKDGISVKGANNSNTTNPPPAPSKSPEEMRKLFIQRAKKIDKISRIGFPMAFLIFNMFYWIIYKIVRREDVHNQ", "assay": "Two-electrode voltage clamp of glycine-evoked current", "type": "cell-based"}, "[2]": {"target": "T2, glycine receptor α1 F124A (Homo sapiens, UniProt P23415, F136A)", "T2 sequence (P23415 29-457 F136A)": "T1 sequence (P23415 29-457) with F108A", "type": "cell-based"}, "[3]": {"target": "T3, glycine receptor α1 D130A (Homo sapiens, UniProt P23415, D142A)", "T3 sequence (P23415 29-457 D142A)": "T1 sequence (P23415 29-457) with D114A", "type": "cell-based"}, "[4]": {"target": "T4, glycine receptor α1 F124A + D130A (Homo sapiens, UniProt P23415, D142A/F136A)", "T4 sequence (P23415 29-457 F136A/D142A)": "T1 sequence (P23415 29-457) with F108A, D114A", "type": "cell-based", "conditions": "double mutant α1 F124A and D130A"}, "5-HT3a": {"target": "T5, 5-HT3a (Homo sapiens, UniProt P46098)", "T5 sequence (P46098 24-478)": "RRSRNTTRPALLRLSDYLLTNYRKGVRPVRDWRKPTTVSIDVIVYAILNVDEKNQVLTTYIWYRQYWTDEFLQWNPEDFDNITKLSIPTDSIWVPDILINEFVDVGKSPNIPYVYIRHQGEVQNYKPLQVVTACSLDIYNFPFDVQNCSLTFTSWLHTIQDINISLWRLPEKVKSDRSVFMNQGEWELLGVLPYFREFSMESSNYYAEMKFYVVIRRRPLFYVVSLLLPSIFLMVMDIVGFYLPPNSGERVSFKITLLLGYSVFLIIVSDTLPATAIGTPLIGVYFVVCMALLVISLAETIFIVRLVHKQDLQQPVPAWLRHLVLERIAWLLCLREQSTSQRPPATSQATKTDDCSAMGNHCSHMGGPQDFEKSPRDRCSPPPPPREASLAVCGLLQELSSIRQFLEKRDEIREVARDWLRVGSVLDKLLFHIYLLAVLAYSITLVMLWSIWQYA", "assay": "Interaction with ligand-gated channel 5-HT3a"}, "[5]": {"conditions": "cited from earlier work"}, "[6]": {"conditions": "glycine concentration-response in presence of 10 µM EG"}, "[7]": {"conditions": "glycine concentration-response in presence of 100 µM EG"}}, "note": "Where a chain is given by its changes, count along the chain named.", "data": [{"smiles": "CN1C[C@H](C(=O)N[C@]2(C)O[C@@]3(O)[C@@H]4CCCN4C(=O)[C@H](Cc4ccccc4)N3C2=O)C=C2c3cccc4[nH]cc(c34)C[C@H]21", "note": "[ergotamine]", "values": [{"measurement": "IC50", "setting": "[1]", "value": "5.7 ± 0.7", "unit": "µM"}, {"measurement": "reversal potential", "setting": "[1]; application of ergotamine and glycine or glycine alone, voltage ramp −100 to +60 mV", "value": "approximately 0 mV"}, {"measurement": "inhibition of IGly in voltage ramp", "setting": "[1]; ergotamine 10 µM + 100 µM glycine, at +60 mV", "value": "42.3 ± 6.2", "unit": "%"}, {"measurement": "inhibition of IGly in voltage ramp", "setting": "[1]; ergotamine 10 µM + 100 µM glycine, at −100 mV", "value": "39.9 ± 4.8", "unit": "%"}, {"measurement": "inhibition of IGly in voltage ramp", "setting": "[1]; ergotamine 100 µM + 100 µM glycine, at +60 mV", "value": "74.6 ± 5.4", "unit": "%"}, {"measurement": "inhibition of IGly in voltage ramp", "setting": "[1]; ergotamine 100 µM + 100 µM glycine, at −100 mV", "value": "71.9 ± 4.1", "unit": "%"}, {"measurement": "voltage dependence of inhibition (current-voltage relationship)", "setting": "[1]; ergotamine 10 or 100 µM + 100 µM glycine, ramps −100 to +60 mV", "value": "voltage insensitive"}, {"measurement": "reversibility of inhibition of IGly", "setting": "[1]; ergotamine and glycine co-application, washout", "value": "reversible"}, {"measurement": "relation between glycine and ergotamine (competition test)", "setting": "[1]; glycine 0–100 µM with or without ergotamine 10 or 100 µM", "value": "non-competitive"}, {"measurement": "Imax (maximum response) of glycine-induced current", "setting": "[1]; [6]", "value": "53.9 ± 2.3"}, {"measurement": "nH (Hill's coefficient) of glycine-induced current", "setting": "[1]; [6]", "value": "1.2 ± 0.2"}, {"measurement": "Imax (maximum response) of glycine-induced current", "setting": "[1]; [7]", "value": "31.7 ± 0.5"}, {"measurement": "nH (Hill's coefficient) of glycine-induced current", "setting": "[1]; [7]", "value": "0.9 ± 0.2"}, {"measurement": "effect on desensitization", "setting": "[1]; prolonged glycine application", "value": "did not alter desensitization kinetics or induce desensitization"}, {"measurement": "inhibition at 10 µM", "setting": "[1]; read-out: inhibition of the current stimulated by 100 µM glycine", "value": "59.8 ± 2.9", "unit": "%"}, {"measurement": "effect of ergotamine alone on IGly", "setting": "[1]; various concentrations of ergotamine without glycine, holding potential −80 mV", "value": "no effect"}, {"measurement": "nH (Hill's coefficient)", "setting": "[1]; α1 wild", "value": "1.2 ± 0.2"}, {"measurement": "Imax (maximum response) of ergotamine inhibition of glycine-evoked current", "setting": "[1]; α1 wild, 100 µM glycine, −80 mV", "value": "91.5 ± 2.2"}, {"measurement": "IC50", "setting": "[2]", "value": "25.7 ± 2.9", "unit": "µM"}, {"measurement": "Imax (maximum response) of ergotamine inhibition of glycine-evoked current", "setting": "[2]; α1 F124A", "value": "42.4 ± 1.5"}, {"measurement": "nH (Hill's coefficient)", "setting": "[2]; α1 F124A", "value": "1.3 ± 0.1"}, {"measurement": "IC50", "setting": "[3]", "value": "28.1 ± 9.7", "unit": "µM"}, {"measurement": "Imax (maximum response) of ergotamine inhibition of glycine-evoked current", "setting": "[3]; α1 D130A", "value": "32.1 ± 8.8"}, {"measurement": "nH (Hill's coefficient)", "setting": "[3]; α1 D130A", "value": "1.1 ± 0.3"}, {"measurement": "Hill coefficient", "setting": "[4]", "value": "1.9 ± 0.6"}, {"measurement": "interaction with 5-HT3a", "setting": "5-HT3a", "value": "does not interact"}, {"measurement": "penetration across the blood-brain barrier", "setting": "[5]", "value": "relatively poor penetration"}]}, {"smiles": "NCC(=O)O", "note": "[glycine]", "values": [{"measurement": "nH (Hill's coefficient) of glycine-induced current", "setting": "[1]; Control, absence of ergotamine", "value": "1.1 ± 0.3"}, {"measurement": "Imax (maximum response) of glycine-induced current", "setting": "[1]; Control, absence of ergotamine, glycine 0.3 to 100 µM, −80 mV", "value": "99.6 ± 2.4"}]}]}
